Measurements taken from patent US9902712B2, “Nitrogenous heterocyclic derivatives and their application in drugs” (Sunshine Lake Pharma Co., Ltd., priority 2013, dated 2018).

Tested on: HFL1 cells
Experiment: HFL1 cell proliferation inhibition (CCK-8, optical density at 450 nm)
Type: cell-based
Conditions: for IC50: Homo sapiens, 48 hours after dosing, CCK-8, cell proliferation inhibition; for The ratio with PFD: IC50 ratio of Pirfenidone to the compound, 48 hours
Experimental: Example 69: Cell Experiment Method
HFL1 cells in exponential growth phase were cultured, cells were digested and collected using traditional subculturing when reaching 85-95% fusion and the cells were counted to adjust, the cell density to 5×10^4 cells per milliliter, then the cells were seed into 96-well plates, 100 μl/well and incubated in a 5% CO2 incubator at 37° C.
The supernatant of the 96-well plates was removed at 24 hours after the cells adhering to the wall and solutions containing the above compounds with different concentration were added to the wells, with 100 μl/well (the concentration of each compounds are in the range of 0.003-8 mmol/L) each concentration in 3 replicates, and the cells were cultured 48 hours after dosing.
3. Testing the Optical Density
10 μl of CCK-8 solution was added to each well 48 hours after dosing, and incubated for 2 hours. The optical density (A) of each well was determined using a microplate reader at 450 nm wavelength. The cell proliferation inhibition ratio of each compound were calculated based on A using the formula of: cell proliferation inhibition ratio(inhibition ratio, IR)=(1−value of experimental group (Ai)/value of control group (Ao))×100%, in which IC50 of each compound at 48 hours was calculated by data processing software, wherein the control group was the blank group.

SMILES	IC50	The ratio with PFD
Cc1cc(=O)n(-c2ccc(N3CCC(Cc4ccccc4-c4ccccc4)CC3)c(Cl)c2)c(C)n1 [Example 13, 3-(4-(4-([1,1′-biphenyl]-2-ylmethyl)piperidin-1-yl)-3-chlorophenyl)-2,6-dimethylpyrimidin-4(3H)-one]	70 µM	118 multiple
Cc1cc(=O)n(-c2ccc(N3CCC(Cc4ccc(Cl)c(F)c4)CC3)c(Cl)c2)c(C)n1 [Example 16, 3-(3-chloro-4-(4-(4-chloro-3-fluorobenzyl)piperidin-1-yl)phenyl)-2,6-dimethylpyrimidin-4(3H)-one]	70 µM	139 multiple
Cc1cc(=O)n(-c2ccc(N3CCC(Cc4ccc5cc(F)ccc5c4)CC3)c(Cl)c2)c(C)n1 [Example 51, 3-(3-chloro-4-(4-((6-fluoronaphthalen-2-yl)methyl)piperidin-1-yl)phenyl)-2,6-dimethylpyrimidin-4(3H)-one]	37 µM	618 multiple
Cc1cc(=O)n(-c2ccc(N3CCC(OCc4cccc(F)c4)CC3)c(Cl)c2)c(C)n1 [Example 32, 3-(3-chloro-4-(4-((3-fluorobenzyl)oxy)piperidin-1-yl)phenyl)-2,6-dimethylpyrimidin-4(3H)-one]	100 µM	107 multiple
Cc1cc(=O)n(-c2ccc(N3CCC(Cc4ccc5ccccc5c4)CC3)c(Cl)c2)c(C)n1 [Example 10, 3-(3-chloro-4-(4-(naphthalen-2-ylmethyl)piperidin-1-yl)phenyl)-2,6-dimethylpyrimidin-4(3H)-one]	78 µM	111 multiple
Cc1ccc(OC2CCN(c3ccc(-n4c(C)nc(C)cc4=O)cc3Cl)CC2)c(Cl)c1 [Example 37, 3-(3-chloro-4-(4-(2-chloro-4-methylphenoxy)piperidin-1-yl)phenyl)-2,6-dimethylpyrimidin-4(3H)-one]	80 µM	181 multiple
Cc1cc(=O)n(-c2ccc(N3CCC(Cc4ccccc4Cl)CC3)c(Cl)c2)c(C)n1 [Example 15, 3-(3-chloro-4-(4-(2-chlorobenzyl)piperidin-1-yl)phenyl)-2,6-dimethylpyrimidin-4(3H)-one]	65 µM	151 multiple
Cc1cc(=O)n(-c2ccc(N3CCC(Cc4cccc5ccccc45)CC3)c(F)c2)c(C)n1 [Example 26, 3-(3-fluoro-4-(4-(naphthalen-1-ylmethyl)piperidin-1-yl)phenyl)-2,6-dimethylpyrimidin-4(3H)-one]	60 µM	137 multiple
Cc1cc(=O)n(-c2ccc(N3CCC(Oc4ccccc4OC(F)(F)F)CC3)c(Cl)c2)c(C)n1 [Example 35, 3-(3-chloro-4-(4-(2-(trifluoromethoxy)phenoxy)piperidin-1-yl)phenyl)-2,6-dimethylpyrimidin-4(3H)-one]	120 µM	119 multiple
Cc1cc(=O)n(-c2ccc(N3CCC(Cc4cccc5cccnc45)CC3)c(Cl)c2)c(C)n1 [Example 22, 3-(3-chloro-4-(4-(quinolin-8-ylmethyl)piperidin-1-yl)phenyl)-2,6-dimethylpyrimidin-4(3H)-one]	90 µM	101 multiple
Cc1cc(=O)n(-c2ccc(N3CCC(Oc4cccc(N)c4)CC3)c(Cl)c2)c(C)n1 [Example 34, 3-(4-(4-(3-aminophenoxy)piperidin-1-yl)-3-chlorophenyl)-2,6-dimethylpyrimidin-4(3H)-one]	90 µM	154 multiple
Cc1cc(=O)n(-c2ccc(N3CCC(Cc4cccc5ccccc45)CC3)c(Cl)c2)c(C)n1 [Example 9, 3-(3-chloro-4-(4-(naphthalen-1-ylmethyl)piperidin-1-yl)phenyl)-2,6-dimethylpyrimidin-4(3H)-one]	80 µM	179 multiple
Cc1cc(=O)n(-c2ccc(N3CCC(Cc4ccc(F)cc4)CC3)c(F)c2)c(C)n1 [Example 25, 3-(3-fluoro-4-(4-(4-fluorobenzyl)piperidin-1-yl)phenyl)-2,6-dimethylpyrimidin-4(3H)-one]	100 µM	107 multiple
Cc1cc(=O)n(-c2ccc(N3CCC(Cc4cc(F)c(F)c5cccnc45)CC3)c(Cl)c2)c(C)n1 [Example 57, 3-(3-chloro-4-(4-((5,6-difluoroquinolin-8-yl)methyl)piperidin-1-yl)phenyl)-2,6-dimethylpyrimidin-4(3H)-one]	60 µM	168 multiple
Cc1cc(=O)n(-c2ccc(N3CCC(Cc4cc(F)c(F)c(F)c4)CC3)c(Cl)c2)c(C)n1 [Example 17, 3-(3-chloro-4-(4-(3,4,5-trifluorobenzyl)piperidin-1-yl)phenyl)-2,6-dimethylpyrimidin-4(3H)-one]	70 µM	137 multiple
Cc1cc(=O)n(-c2ccc(N3CCC(Cc4ccc(F)c5ccccc45)CC3)c(Cl)c2)c(C)n1 [Example 58, 3-(3-chloro-4-(4-((4-fluoronaphthalen-1-yl)methyl)piperidin-1-yl)phenyl)-2,6-dimethylpyrimidin-4(3H)-one]	64 µM	357 multiple
Cc1cc(=O)n(-c2ccc(N3CCC(Cc4cccc(Cl)c4)CC3)c(Cl)c2)c(C)n1 [Example 19, 3-(3-chloro-4-(4-(3-chlorobenzyl)piperidin-1-yl)phenyl)-2,6-dimethylpyrimidin-4(3H)-one]	70 µM	137 multiple
COc1cccc(CC2CCN(c3ccc(-n4c(C)nc(C)cc4=O)cc3Cl)CC2)c1 [Example 12, 3-(3-chloro-4-(4-(3-methoxybenzyl)piperidin-1-yl)phenyl)-2,6-dimethylpyrimidin-4(3H)-one]	80 µM	112 multiple
Cc1cc(=O)n(-c2ccc(N3CCC(Cc4cc(F)cc5cccnc45)CC3)c(Cl)c2)c(C)n1 [Example 54, 3-(3-chloro-4-(4-((6-fluoroquinolin-8-yl)methyl)piperidin-1-yl)phenyl)-2,6-dimethylpyrimidin-4(3H)-one]	40 µM	209 multiple
Cc1cc(=O)n(-c2ccc(N3CCC(Cc4ccc(C(F)(F)F)c5cccnc45)CC3)c(Cl)c2)c(C)n1 [Example 56, 3-(3-chloro-4-(4-((5-(trifluoromethyl)quinolin-8-yl)methyl)piperidin-1-yl)phenyl)-2,6-dimethylpyrimidin-4(3H)-one]	40 µM	209 multiple
Cc1cc(=O)n(-c2ccc(N3CCC(COc4cccc(F)c4)CC3)c(Cl)c2)c(C)n1 [Example 30, 3-(3-chloro-4-(4-((3-fluorophenoxy)methyl)piperidin-1-yl)phenyl)-2,6-dimethylpyrimidin-4(3H)-one]	60 µM	136 multiple
Cc1cc(=O)n(-c2ccc(N3CCC(COc4cccc(C(F)(F)F)c4)CC3)c(Cl)c2)c(C)n1 [Example 53, 3-(3-chloro-4-(4-((3-(trifluoromethyl)phenoxy)methyl)piperidin-1-yl)phenyl)-2,6-dimethylpyrimidin-4(3H)-one]	38 µM	602 multiple
Cc1cc(=O)n(-c2ccc(N3CCC(Cc4ccc(F)c(F)c4)CC3)c(Cl)c2)c(C)n1 [Example 44, 3-(3-chloro-4-(4-(3,4-difluorobenzyl)piperidin-1-yl)phenyl)-2,6-dimethylpyrimidin-4(3H)-one]	70 µM	139 multiple
Cc1cc(=O)n(-c2ccc(N3CCC(Cc4cccc(C(F)(F)F)c4)CC3)c(Cl)c2)c(C)n1 [Example 14, 3-(3-chloro-4-(4-(3-(trifluoromethyl)benzyl)piperidin-1-yl)phenyl)-2,6-dimethylpyrimidin-4(3H)-one]	60 µM	139 multiple
C=CCc1ccccc1OC1CCN(c2ccc(-n3c(C)nc(C)cc3=O)cc2Cl)CC1 [Example 33, 3-(4-(4-(2-allylphenoxy)piperidin-1-yl)-3-chlorophenyl)-2,6-dimethylpyrimidin-4(3H)-one]	70 µM	149 multiple
Cc1cc(=O)n(-c2ccc(N3CCC(Cc4ccccc4F)CC3)c(Cl)c2)c(C)n1 [Example 6, 3-(3-chloro-4-(4-(2-fluorobenzyl)piperidin-1-yl)phenyl)-2,6-dimethylpyrimidin-4(3H)-one]	70 µM	121 multiple
Cc1cc(=O)n(-c2ccc(N3CCC(Oc4cccc(C#N)c4)CC3)c(Cl)c2)c(C)n1 [Example 29, 3-((1-(2-chloro-4-(2,4-dimethyl-6-oxopyrimidin-1 (6H)-yl)phenyl)piperidin-4-yl)oxy)benzonitrile]	90 µM	107 multiple
